Test results reported in patent US20260062412A1, “NITROGEN-CONTAINING HETEROCYCLIC COMPOUND HAVING MYT1 INHIBITORY ACTIVITY” (CHUGAI SEIYAKU KABUSHIKI KAISHA, priority 2023, published 2026).

Experiments:
[1] = molecular target: T1, MYT1 protein (Homo sapiens (Human), UniProt Q99640); assay: Test for binding to ATP binding site of MYT1 (Kinase Tracer 178 / Eu-Anti-GST antibody TR-FRET); conditions: ATP binding site of MYT1, 30 minutes at room temperature
[2] = system: LU65; assay: Cytotoxicity test with pemetrexed upon addition of each example compound (CellTiter-Glo); format: cell-based, human; conditions: combination with pemetrexed, LU65 cells, 7 days; maximum value, at the MYT1 inhibitor and pemetrexed concentrations
How it was run: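 LU65 lung cancer cells (RB1 S82* truncation, reduced RB1 function) in RPMI-1640/10% FBS were treated with pemetrexed plus each compound over concentration series, 7 days at 37 °C. ATP measured by CellTiter-Glo luminescence; survival relative to DMSO after blank subtraction, cytotoxicity = 100% minus survival.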

[3] = molecular target: T1, MYT1 protein; assay: MYT1 kinase activity inhibition test (ELISA, phosphorylation of Y15 of CDK1); format: biochemical; conditions: phosphorylation level of Y15 of CDK1 protein caused by MYT1 protein, 60 minutes
How it was run: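 Recombinant human MYT1 (5 nM working solution) was incubated 60 min at room temperature with compound and ATP (83.3 μM working solution) on a CDK1-coated ELISA plate. CDK1 Y15 phosphorylation was detected with HRP anti-phosphotyrosine, read as A450 minus A590. Inhibition was normalised to no-compound (100%) and no-enzyme (0%) signals to derive IC50.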

T1 sequence (Q99640 whole entry): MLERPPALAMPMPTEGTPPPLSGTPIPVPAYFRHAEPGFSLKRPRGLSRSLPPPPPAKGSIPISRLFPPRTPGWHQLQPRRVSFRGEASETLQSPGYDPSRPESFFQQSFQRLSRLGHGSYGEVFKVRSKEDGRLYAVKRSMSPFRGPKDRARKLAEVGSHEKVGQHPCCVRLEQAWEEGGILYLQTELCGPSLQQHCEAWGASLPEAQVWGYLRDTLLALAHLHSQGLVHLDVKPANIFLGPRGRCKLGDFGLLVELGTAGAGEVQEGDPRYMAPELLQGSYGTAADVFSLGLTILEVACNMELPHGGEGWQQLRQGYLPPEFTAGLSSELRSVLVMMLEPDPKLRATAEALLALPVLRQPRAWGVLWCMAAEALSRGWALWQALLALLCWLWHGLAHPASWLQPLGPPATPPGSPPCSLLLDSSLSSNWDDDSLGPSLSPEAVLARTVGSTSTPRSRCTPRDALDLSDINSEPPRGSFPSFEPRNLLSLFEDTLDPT

IC50 [1] [nM]	IC50 [3] [nM]	Structure (SMILES)	Bliss Score (Max) [2] [%]	HSA Score (MAX) [2] [%]
3.3	19	Nc1c(-c2ccc(F)c3[nH]ncc23)c2cc(C3CCC(=O)CC3)c3ncccc3c2[nH]c1=O [Compound C139, 3-Amino-4-(7-fluoro-1H-indazol-4-yl)-6-(4-oxocyclohexyl)-1H-1,7-phenanthrolin-2-one]	46	54
1.7	< 4.6	Nc1c(-c2ccc(F)c3[nH]ncc23)c2cc([C@H]3CC[C@H](O)CC3)c3ncccc3c2[nH]c1=O [Compound C140, 3-Amino-4-(7-fluoro-1H-indazol-4-yl)-6-((1r, 4r)-4-hydroxycyclohexyl)-1H-1,7-phenanthrolin-2-one]	73	76
4.9	11	Nc1c(-c2ccc(F)c3[nH]ncc23)c2cc([C@H]3CC[C@@H](O)CC3)c3ncccc3c2[nH]c1=O [Compound C141, 3-Amino-4-(7-fluoro-1H-indazol-4-yl)-6-((1s, 4s)-4-hydroxycyclohexyl)-1H-1,7-phenanthrolin-2-one]	78	72
2.7	0.2	Nc1c(-c2ccc(Cl)c3[nH]ncc23)c2cc(C3CC3)c3ncccc3c2[nH]c1=O [Compound C143, 3-Amino-4-(7-chloro-1H-indazol-4-yl)-6-cyclopropyl-1H-1,7-phenanthrolin-2-one]	50	67
7	0.32	Nc1c(-c2ccc(Cl)c3[nH]ncc23)c2ccc3ncccc3c2[nH]c1=O [Compound C144, 3-Amino-4-(7-chloro-1H-indazol-4-yl)-1H-1,7-phenanthrolin-2-one]	39	47
3.4	16	Nc1c(-c2ccc(F)c3[nH]ncc23)c2cc(C3CCNC3)c3ncccc3c2[nH]c1=O.O=CO (centres unmarked) [Compound C146, 3-Amino-4-(7-fluoro-1H-indazol-4-yl)-6-pyrrolidin-3-yl-1H-1,7-phenanthrolin-2-one; formate]	44	44
2.3	< 4.6	Cc1cc2c(-c3c(F)ccc4[nH]ncc34)c(N)c(=O)[nH]c2c2cccnc12 [Compound C155, 3-Amino-4-(5-fluoro-1H-indazol-4-yl)-6-methyl-1H-1,7-phenanthrolin-2-one]	47	61
2.8	0.31	Nc1c(-c2cccc3[nH]ncc23)c2cc(C3CC3)c3ncccc3c2[nH]c1=O [Compound C185, 3-Amino-6-cyclopropyl-4-(1H-indazol-4-yl)-1H-1,7-phenanthrolin-2-one]	55	68
2.5	0.34	Cc1cc2c(-c3cc(F)c(F)c4[nH]ncc34)c(N)c(=O)[nH]c2c2cccnc12 [Compound C190, 3-amino-4-(6,7-difluoro-1H-indazol-4-yl)-6-methyl-1H-1,7-phenanthrolin-2-one]	48	66
2.3	0.24	Nc1c(-c2cc(F)c(Cl)c3[nH]ncc23)c2cc(C3CC3)c3ncccc3c2[nH]c1=O [Compound C195, 3-Amino-4-(7-chloro-6-fluoro-1H-indazol-4-yl)-6-cyclopropyl-1H-1,7-phenanthrolin-2-one]	52	65
2.4	7	CC(=O)c1cc2c(-c3ccc(F)c4[nH]ncc34)c(N)c(=O)[nH]c2c2cccnc12 [Compound C200, 6-Acetyl-3-amino-4-(7-fluoro-1H-indazol-4-yl)-1H-1,7-phenanthrolin-2-one]	44	56
